# Test results reported in ChEMBL document CHEMBL1221315, “Antiviral agents 2. Synthesis of trimeric naphthoquinone analogues of conocurvone and their antiviral evaluation against HIV” (Bioorg Med Chem, 2010).
# How the values were obtained:
# [1] = test system: Human immunodeficiency virus 1; test: Antiviral activity against HIV1 Rf infected in CEM cells assessed as inhibition of viral replication after 5 days; format: functional, organism-based; details: Human immunodeficiency virus 1, Rf, CCRF-CEM, 120 h
# [2] = test system: CCRF-CEM; test: Cytotoxicity against human CEM cells; format: functional
# [3] = target: T1, Human immunodeficiency virus type 1 integrase (Human immunodeficiency virus 1, UniProt Q7ZJM1); test: Inhibition of HIV1 integrase 3' processing activity
# T1 sequence (Q7ZJM1 whole entry): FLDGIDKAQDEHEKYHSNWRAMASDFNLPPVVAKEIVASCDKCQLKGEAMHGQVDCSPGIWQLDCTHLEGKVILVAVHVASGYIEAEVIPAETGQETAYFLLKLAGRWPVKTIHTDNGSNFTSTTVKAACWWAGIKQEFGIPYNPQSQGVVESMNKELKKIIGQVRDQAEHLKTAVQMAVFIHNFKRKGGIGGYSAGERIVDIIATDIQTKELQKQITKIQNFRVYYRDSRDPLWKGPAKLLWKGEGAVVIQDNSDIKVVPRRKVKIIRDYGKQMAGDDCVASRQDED
# [4] = target: T1, Human immunodeficiency virus type 1 integrase; test: Inhibition of HIV1 integrase 3' strand transfer activity
# [5] = Cmax in rat at 5 mg/kg, po; format: ADME, organism-based; parameters: dose 5 mg/kg, route oral; details: in vivo
# [6] = Half life in rat at 5 mg/kg, po; format: ADME, organism-based; parameters: dose 5 mg/kg, route oral; details: in vivo
# [7] = Oral bioavailability in rat at 5 mg/kg; format: ADME, organism-based; details: in vivo
# [8] = Cmax in rat at 2 mg/kg, iv; details: in vivo
# [9] = Half life in rat at 2 mg/kg, iv; details: in vivo
# [10] = Tmax in rat at 5 mg/kg, po and 2 mg/kg, iv; details: in vivo
# [11] = Plasma clearance in rat at 5 mg/kg, po and 2 mg/kg, iv
# [12] = test system: Rattus norvegicus; test: Volume of distribution at steady state in rat at 5 mg/kg, po and 2 mg/kg, iv; details: in vivo
SMILES,EC50 [1] [µM],CC50 [2] [µM],IC50 [3] [µM],IC50 [4] [µM],other results
COc1ccc2c(c1)C(=O)C(C1=C(O)C(=O)c3c(ccc4c3C=CC(C)(C)O4)C1=O)=C(C1=C(O)C(=O)c3c(ccc4c3C=CC(C)(C)O4)C1=O)C2=O,0.027,10,2.3,2.5,
COc1ccc2c(c1)C(=O)C(O)=C(C1=C(C3=C(O)C(=O)c4cc(OC)ccc4C3=O)C(=O)c3ccccc3C1=O)C2=O,> 20,,22.5,10,
CCCOc1ccc2c(c1)C(=O)C(C1=C(O)C(=O)c3c(ccc4c3C=CC(C)(C)O4)C1=O)=C(C1=C(O)C(=O)c3c(ccc4c3C=CC(C)(C)O4)C1=O)C2=O,0.009,1,2.8,5,
CC(C)Oc1ccc2c(c1)C(=O)C(C1=C(O)C(=O)c3c(ccc4c3C=CC(C)(C)O4)C1=O)=C(C1=C(O)C(=O)c3c(ccc4c3C=CC(C)(C)O4)C1=O)C2=O,0.24,> 20,3,> 100,
CC1(C)C=Cc2c(ccc3c2C(=O)C(O)=C(C2=C(C4=C(O)C(=O)c5c(ccc6c5C=CC(C)(C)O6)C4=O)C(=O)c4c(ccc5c4C=CC(C)(C)O5)C2=O)C3=O)O1,0.39,> 20,1.7,3,
O=C1C(O)=C(C2=C(C3=C(O)C(=O)c4ccccc4C3=O)C(=O)c3ccccc3C2=O)C(=O)c2ccccc21,16,48,56,13,
CC1(C)C=Cc2c(ccc3c2C(=O)C(O)=C(C2=C(C4=C(O)C(=O)c5c(ccc6c5C=CC(C)(C)O6)C4=O)C(=O)N(Cc4ccccc4)C2=O)C3=O)O1,> 20,,4.5,4,
COc1cc2c(cc1OC)C(=O)C(C1=C(C3=C(O)C(=O)c4cc(OC)c(OC)cc4C3=O)C(=O)c3ccccc3C1=O)=C(O)C2=O,> 20,,62,12,
CC1(C)C=Cc2c(ccc3c2C(=O)C(O)=C(C2=C(C4=C(O)C(=O)c5c(ccc6c5C=CC(C)(C)O6)C4=O)C(=O)c4ccccc4C2=O)C3=O)O1,0.029,10,2.5,2,
COc1cc2c(cc1OC)C(=O)C(C1=C(C3=C(O)C(=O)c4cc(OC)c(OC)cc4C3=O)C(=O)c3cc(OC)c(OC)cc3C1=O)=C(O)C2=O,,,> 150,10,
COc1cccc2c1C(=O)C(C1=C(C3=C(O)C(=O)c4cccc(OC)c4C3=O)C(=O)c3ccccc3C1=O)=C(O)C2=O,> 20,,,13,
CC1(C)C=Cc2c(ccc3c2C(=O)C(O)=C(C2=C(C4=C(O)C(=O)c5c(ccc6c5C=CC(C)(C)O6)C4=O)C(=O)c4c(ccc5c4CCC(C)(C)O5)C2=O)C3=O)O1,0.47,> 20,1.8,6,Cmax [5]: 3200 ng/mL; half-life [6]: 21.7 h; bioavailability [7]: 2.6%; Cmax [8]: 50200 ng/mL; half-life [9]: 45 h; Tmax [10]: 7.5 h; clearance [11]: 0.00733 mL/min; Vdss [12]: 27.7 mL
CC1(C)CCc2c(ccc3c2C(=O)C(O)=C(C2=C(C4=C(O)C(=O)c5c(ccc6c5CCC(C)(C)O6)C4=O)C(=O)c4c(ccc5c4CCC(C)(C)O5)C2=O)C3=O)O1,,,,9,
